US6949516B2, “Dipeptide apoptosis inhibitors and the use thereof” (Cytovia, Inc., priority 1997, dated 2005)

Experiments:
HeLa cells [1] = experiment: Cell death assay with HeLa cells, quantitative (calcein AM), TNF-α/CHX challenge; format: cell-based
Procedure: The cytoprotective properties of Cbz-Val-Asp(OMe)CH2F were tested using HeLa cells challenged with tumor necrosis factor-alpha (TNF-α) and cycloheximide (CHX). This is a well-characterized cell culture model of apoptosis which is commonly used to analyze anti-apoptotic agents. Two types of experiments were performed: a qualitative assessment of cell death by visualization of the cells using phase contrast microscopy; and a quantitative assessment of cell death using the fluorescent dye calcein AM.
For quantitative assays, the degree of cell survival in the presence of test compounds is analyzed quantitatively using the indicator dye calcein AM. This dye is taken up and converted to a fluorescent derivative by living cells; the amount of activated dye in each well can then be assayed in a fluorometric plate reader and the degree of fluorescence is used as a measure of the number of surviving cells. For these assays, HeLa cells are seeded in 48-well plates at a density of 25,000 cells per well in 0.4 mL of Minimal Essential Medium containing 2 mM glutamine and 10% fetal bovine serum. 24 hours later the plating medium is removed and 0.5 mL of fresh medium containing test compound at various concentrations is added. The cells are pre-incubated with test compound for 2 hours at 37° C. in a CO2 incubator and then TNF-α and CHX are added at final concentrations of 25 ng/mL and 30 μg/mL, respectively. After a 24 hour incubation period, the cultures are washed twice with serum-free, phenol red-free Ham's F12 to remove dead cells and 125 μL of Ham's F12 containing 8 μM calcein AM is added. […] The data are expressed as “Percent Control,” which is calculated by the following equation: Percent Control=(Calcein AM Signal in the Presence of Test Compound+TNF-α and CHX/(Calcein AM Signal in the Presence of CHX Only)×100% The use of CHX-treated cultures as controls, rather than untreated cultures, allows one to correct for the cytostatic effects of CHX. However, because CHX by itself is also a mild inducer of apoptosis in HeLa cells, strong anti-apoptotic drugs will give a Percent Control value greater than 100%.
Quantitative experiments using calcein AM, as described above, corroborate the results obtained by microscopic examination. FIGS. 4 and 5 illustrate the results of two such experiments where the cytoprotective properties of Cbz-Val-Asp(OMe)-CH2F (a) were compared to BOC-Asp(OMe)-CH2F (b) (FIG. 5) and Cbz-Asp(OMe)-Glu(OMe)-Val-Asp(OMe)-CH2F (SEQ ID NO:1) (c) (FIG. 4) at three concentrations (0.5, 5 and 50 μM). […] By contrast, Cbz-Val-Asp(OMe)-CH2F (a) is as effective a cytoprotectant at 0.5 μM as Cbz-Asp(OMe)-Glu(OMe)-Val-Asp(OMe)-CH2F (SEQ ID NO:1) […] is at 50 μM (FIG. 4).
In order to determine the effect of Cbz-Val-Asp(OMe)-CH2F at low doses, HeLa cells were treated with a range of concentrations from 0.05 μM to 1 μM.

Caspase-8 = target: T1, Caspase-8 (Homo sapiens, UniProt Q14790); experiment: Recombinant caspase assay with Ac-DEVD-AMC, caspase-8; format: biochemical; conditions: 10 μM Ac-DEVD-AMC, 30 minutes at 37° C.
T1 construct: purchased PharMington (PharMingen, a Becton division company, San Diego, Calif.)
T1 sequence (Q14790 217-374 limits assumed): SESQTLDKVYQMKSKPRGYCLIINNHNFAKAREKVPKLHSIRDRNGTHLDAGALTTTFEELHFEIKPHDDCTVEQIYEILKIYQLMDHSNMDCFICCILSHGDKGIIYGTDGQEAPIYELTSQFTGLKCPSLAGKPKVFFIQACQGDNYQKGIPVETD
Procedure: The inhibitory activity of Cbz-Val-Asp-CH2F in recombinant caspase 3, 6, 7 and 8 obtained from PharMington (a Becton division company, San Diego, Calif.) were measured using Ac-DEVD-AMC (SEQ ID NO:1). The amount of each enzyme per assay was as following: 1 ng caspase3, 15 ng caspase6, 2 ng caspase7 and 60 ng caspase8. The enzyme reaction was conducted in 96-well plate using a caspase buffer (20 mM PIPES, 100 mM NaCl, 10 mM DTT, 1 mM EDTA, 0.1% CHAPS and 10% sucrose, pH 7.2) and the reaction was initiated by adding 10 μM Ac-DEVD-AMC (SEQ ID NO:1) (purchased from Quality Controlled Biochemicals, Inc. Hopkinton, Mass.). Twelve concentrations of Cbz-Val-Asp-CH2F ranged from 30 μM to […] were tested after incubation of the compound with recombinant caspases for 30 minutes at 37° C. […] The data was analyzed using GraphPrism software.

HeLa cells [2] = experiment: Effect of Z-VD-fmk on TNF-α-induced cell death in HeLa cells (calcein AM, Example 25); format: cell-based; conditions: TNF-α 25 ng/mL + CHX 30 μg/mL, zero to 500 nM tested
Procedure: Tumor necrosis factor alpha (TNF-α) can trigger apoptosis in a number of cell types by initiating the caspase cascade and its apoptosis inducing activity can be inhibited by peptide-based caspase inhibitors. However, high concentrations of the inhibitors (50 μM or greater) is required to have good anti-apoptotic effect. HeLa cells, a cell line commonly employed in TNF-α cell death studies, was used here to determine the anti-apoptotic potency of Z-VD-fmk.
HeLa cells were seeded in 48-well multidishes at a density of 50,000 cells per well 24 hours before treatment. They were then pre-incubated with varying concentrations of Z-VD-fmk for 2 hours and challenged with TNF-α (25 ng/mL) and cycloheximide (CHX; 30 μg/mL). The cultures were incubated for an additional 24 hours and dead cells were removed by two washes with PBS. The density of surviving cells was then measured by incubating each culture for 45 minutes with calcein AM, a profluorescent dye which is taken up by living cells and converted to a fluorescent product. The resulting data were expressed as % control values (control values were cells incubated with cycloheximide but without TNF-α).
Z-VD-fmk provided good cytoprotection at concentrations approaching 100 nM.

[3] = system: DNA laddering in Jurkat cells; experiment: DNA laddering in antiFas-treated Jurkat cells; format: cell-based, human; conditions: antiFas 100 ng/mL for 4 hours
Text: In the later stages of apoptosis, cells begin to literally fall apart as pieces of the cytoplasm are shed (through blebbing) and the nucleus is disassembled. One of the hallmarks of nuclear disassembly is the cleavage of genomic DNA into nucleosome-sized fragments (termed “DNA laddering”). DNA laddering, like other late stage apoptotic events, is considered to be irreversible, so it is important to determine whether an anti-apoptotic drug can prevent its occurrence.
The ability of Z-VD-fmk to block DNA laddering was tested using antiFas-treated Jurkat cells. Jurkat cells were plated in 60 mm dishes at a density of 5×10^6 cells and pre-incubated with varying concentrations of Z-VD-fmk. They were then challenged with antiFas at 100 ng/mL for 4 hours, harvested, and pelleted and washed with PBS twice. Genomic DNA was isolated using the method of Eldadah et al. (1996). Briefly, the cells were lysed in 2 mL of 7M guanidine HCl and mixed with 1 mL of Wizard miniprep DNA purification resin (Promega). The resin/DNA complex was washed twice with buffer and the DNA was eluted in TE. 1 to 2 μg of this DNA sample was electrophoresed on a 1% agarose/TBE gel and the gel was stained with ethidium bromide.
Vehicle treated cells which were challenged with antiFas show a characteristic laddering pattern of DNA extending down to about 300 bp. […]

COC(=O)CC(NC(=O)C(NC(=O)OCc1ccccc1)C(C)C)C(=O)CF (stereo not drawn) [Cbz-Val-Asp(OMe)-CH2F, Z-Val-Asp-fmk Methyl Ester]
protection of HeLa cells from TNF-α/CHX (calcein AM) (HeLa cells [1]; 0.5 μM): highly active
concentration giving significant protection of HeLa cells from TNF-α/CHX (HeLa cells [1]; range 0.05 μM to 1 μM tested): ≤ 0.25 µM

CC(C)[C@H](NC(=O)OCc1ccccc1)C(=O)NC(CC(=O)O)C(=O)CF (stereo partly drawn) [Cbz-Val-Asp-CH2F, Z-Val-Asp-fmk]
IC50 (Caspase-8): 7.2 nM
concentration providing good cytoprotection against TNF-α-induced cell death (HeLa cells [2]): ~100 nM
dose inhibiting DNA ladder formation [3]: ≤ 50 nM
